Our source for the IC50 values is patent publication US8461329B2, “Isoquinoline derivative” (Taisho Pharmaceutical Co., Ltd., priority 2008, dated 2013).

Molecules are shown by their SMILES. Structures can show the parent of a compound that is named as a salt.

One assay addresses T1, CRTH2 (KB8 cells) (Homo sapiens, UniProt Q9Y5Y4).
T1 construct: host or cells: KB8 cells (human CRTH2 expression cell)
T1 sequence (Q9Y5Y4 1-395): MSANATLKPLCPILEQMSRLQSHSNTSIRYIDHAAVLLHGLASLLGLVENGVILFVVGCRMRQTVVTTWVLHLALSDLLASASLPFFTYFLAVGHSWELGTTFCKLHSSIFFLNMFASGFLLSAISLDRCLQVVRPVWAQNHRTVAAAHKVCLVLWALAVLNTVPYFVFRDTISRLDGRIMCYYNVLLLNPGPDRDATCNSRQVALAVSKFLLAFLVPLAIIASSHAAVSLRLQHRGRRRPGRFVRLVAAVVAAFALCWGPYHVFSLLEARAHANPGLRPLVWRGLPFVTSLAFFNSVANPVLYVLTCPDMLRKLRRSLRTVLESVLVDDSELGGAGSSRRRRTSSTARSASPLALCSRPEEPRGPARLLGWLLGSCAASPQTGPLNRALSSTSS
Description: CRTH2 antagonist test (PGD2-induced intracellular calcium ion concentration increase in KB8 cells). Type of assay: cell-based. As to conditions: PGD2 100 nM, Fluo-4 calcium fluorescence, read-out: CRTH2 antagonist activity IC50 value. How it is done: The antagonist activity of the compound of the present invention was considered by using the intracellular calcium ion concentration increase reaction induced when the prostaglandin D2 was added to KB8 cells.
Fluo-4-AM (4-(6-acetoxymethoxy-2,7-difluoro-3-oxo-9-xanthenyl)-4′-methyl-2,2′-(ethylenedioxy)dianilide-N,N,N′,N′-tetraacetic acid tetrakis(acetoxymethyl) ester (SIGMA, final concentration: 1 μM) was added to KB8 cells, and the cells were incubated at 37° C. for 30 min, washed with phosphate buffer (Invitrogen), and then suspended in Hank's balanced salt solution (Invitrogen)) containing a reaction buffer solution (10 mM HEPES (Invitrogen), and 1 mM calcium chloride (SIGMA). The suspension was dispensed in a 96 well plate (Nunc) so that 2×10^5 cells/well were placed, and the compound of the present invention and PGD2 (final concentration: 100 nM) were added. The fluorescence intensity thereof was measured over time by using FDSS6000 (Hamamatsu Photonics), and thus the maximum fluorescence intensity value “d” was obtained. The same procedure was carried out in the absence of the compound, and the maximum fluorescence intensity value “e” was obtained; and the same procedure was carried out in the absence of the compound and […], and the maximum fluorescence intensity value “f” was obtained.
The calcium ion concentration increase inhibition rate of a compound was calculated by the following calculation formula: Inhibitory rate(%)=[1−(d−f)/(e−f)]×100
That is to say, by using calcium ion concentration increase inhibitory rates of compounds to be tested having various concentrations, the IC50 value was calculated according to a dose-dependent inhibition curve analyzed by using XLfit (IDBS) as a data analysis software, and the value was defined as an indicator of the antagonist activity. In Tables, A denotes an inhibitory activity showing the IC50 value of less than 50 nM; B denotes an inhibitory activity showing the IC50 value of 50 nM or greater and less than 500 nM; C denotes an inhibitory activity showing the IC50 value of 500 nM or greater and less than 1000 nM; and D denotes an inhibitory activity showing the IC50 value of 1000 nM or greater.
In the case of `O=C(O)Cc1cnc(C(=O)c2ccc(NC(=O)c3cc4cc(F)ccc4[nH]3)cc2)c2ccccc12` [Example 122], the IC50 came to 0.0023 µM.

The assay is the same for the next values; noted with them: PGD2 final concentration 100 nM, Fluo-4-AM fluorescence, read-out: antagonist activity (IC50 value, inhibition of calcium ion concentration increase).
Consider `O=C(O)Cc1cnc(C(=O)c2ccc(NC(=O)c3ccc(O)cc3)cc2)c2ccccc12` [Example 89], for which the IC50 was below 0.05 µM.

With `O=C(O)Cc1cnc(C(=O)c2ccc(NC(=O)C3=CCCCC3)cc2)c2ccccc12` [Example 90], the IC50 is 0.05 to 0.5 µM.

For the molecule `O=C(O)Cc1cnc(C(=O)c2ccc(NC(=O)c3ccc(C(=O)c4ccccc4)cc3)cc2)c2ccccc12` [Example 91], the IC50 was below 0.05 µM.

As to `O=C(O)Cc1cnc(C(=O)c2ccc(NC(=O)c3ccc4ccccc4n3)cc2)c2ccccc12` [Example 93], the IC50 is below 0.05 µM.

For `O=C(O)Cc1cnc(C(=O)c2ccc(NC(=O)c3cc4c([nH]3)CCCC4)cc2)c2ccccc12` [Example 94], the IC50 was below 0.05 µM.

With `O=C(O)Cc1cnc(C(=O)c2ccc(NC(=O)c3c[nH]c4ncccc34)cc2)c2ccccc12` [Example 95], the IC50 is 0.05 to 0.5 µM.

As to `COc1ccc2[nH]c(C(=O)Nc3ccc(C(=O)c4ncc(CC(=O)O)c5ccccc45)cc3)cc2c1` [Example 96], the IC50 is below 0.05 µM.

With `O=C(O)Cc1cnc(C(=O)c2ccc(NC(=O)c3c[nH]cn3)cc2)c2ccccc12` [Example 97], the IC50 was at least 1 µM.

`O=C(O)Cc1cnc(C(=O)c2ccc(NC(=O)c3cccnn3)cc2)c2ccccc12` [Example 98]: the IC50 was at least 1 µM.

Take `Cc1ccc(C(=O)Nc2ccc(C(=O)c3ncc(CC(=O)O)c4ccccc34)cc2)cc1Cl` [Example 99]: the IC50 is below 0.05 µM.

As for `COc1cc(C(=O)Nc2ccc(C(=O)c3ncc(CC(=O)O)c4ccccc34)cc2)ccc1C` [Example 100], the IC50 was below 0.05 µM.

Turning to `Cc1ccc(C(=O)Nc2ccc(C(=O)c3ncc(CC(=O)O)c4ccccc34)cc2)cc1C` [Example 101], the IC50 was below 0.05 µM.

In the case of `Cc1ccc2sc(C(=O)Nc3ccc(C(=O)c4ncc(CC(=O)O)c5ccccc45)cc3)cc2c1` [Example 102], the IC50 is below 0.05 µM.

For the molecule `Cc1cc(C)cc(C(=O)Nc2ccc(C(=O)c3ncc(CC(=O)O)c4ccccc34)cc2)c1` [Example 103], the IC50 is below 0.05 µM.

`O=C(O)Cc1cnc(C(=O)c2ccc(NC(=O)c3cccc4cccnc34)cc2)c2ccccc12` [Example 104]: the IC50 was at least 1 µM.

Take `O=C(O)Cc1cnc(C(=O)c2ccc(NC(=O)c3ccc4cccnc4n3)cc2)c2ccccc12` [Example 105]: the IC50 fell in the range of 0.5 to 1 µM.

As for `COc1ccc(C(=O)Nc2ccc(C(=O)c3ncc(CC(=O)O)c4ccccc34)cc2)cc1OC` [Example 106], the IC50 was 0.05 to 0.5 µM.

Take `Cc1cc(C(=O)Nc2ccc(C(=O)c3ncc(CC(=O)O)c4ccccc34)cc2)ccc1Cl` [Example 107]: the IC50 was below 0.05 µM.

As to `COc1ccc(C(=O)Nc2ccc(C(=O)c3ncc(CC(=O)O)c4ccccc34)cc2)cc1Cl` [Example 108], the IC50 is below 0.05 µM.

In the case of `NS(=O)(=O)c1ccc(C(=O)Nc2ccc(C(=O)c3ncc(CC(=O)O)c4ccccc34)cc2)cc1` [Example 109], the IC50 was in the range of 0.05 to 0.5 µM.

Consider `CCCOc1ccc(C(=O)Nc2ccc(C(=O)c3ncc(CC(=O)O)c4ccccc34)cc2)cc1` [Example 110], for which the IC50 was below 0.05 µM.

As to `CC(C)(C)c1ccc(C(=O)Nc2ccc(C(=O)c3ncc(CC(=O)O)c4ccccc34)cc2)cc1` [Example 111], the IC50 is below 0.05 µM.

In the case of `O=C(O)Cc1cnc(C(=O)c2ccc(NC(=O)c3cnc4ccccc4c3)cc2)c2ccccc12` [Example 112], the IC50 was below 0.05 µM.

On to `O=C(O)Cc1cnc(C(=O)c2ccc(NC(=O)c3cc4ccccc4cn3)cc2)c2ccccc12` [Example 113], for which the IC50 was below 0.05 µM.

With `O=C(O)Cc1cnc(C(=O)c2ccc(NC(=O)c3ccc(C4CCCCC4)cc3)cc2)c2ccccc12` [Example 114], the IC50 was below 0.05 µM.

As to `CC(C)Oc1ccc(C(=O)Nc2ccc(C(=O)c3ncc(CC(=O)O)c4ccccc34)cc2)cc1` [Example 115], the IC50 is below 0.05 µM.

`O=C(O)Cc1cnc(C(=O)c2ccc(NC(=O)c3ccc4occc4c3)cc2)c2ccccc12` [Example 116]: the IC50 was below 0.05 µM.

As for `O=C(O)Cc1cnc(C(=O)c2ccc(NC(=O)c3ccc4nccnc4c3)cc2)c2ccccc12` [Example 117], the IC50 was 0.5 to 1 µM.

Consider `O=C(O)Cc1cnc(C(=O)c2ccc(NC(=O)c3cc(F)c(F)c(F)c3F)cc2)c2ccccc12` [Example 118], for which the IC50 lay in the range of 0.5 to 1 µM.

In the case of `O=C(O)Cc1cnc(C(=O)c2ccc(NC(=O)c3cc4ccccc4s3)cc2)c2ccccc12` [Example 119], the IC50 was below 0.05 µM.

On to `CCCCCCc1ccc(C(=O)Nc2ccc(C(=O)c3ncc(CC(=O)O)c4ccccc34)cc2)cc1` [Example 120], for which the IC50 was below 0.05 µM.

As to `O=C(O)Cc1cnc(C(=O)c2ccc(NC(=O)c3cn4ccccc4n3)cc2)c2ccccc12` [Example 121], the IC50 fell in the range of 0.05 to 0.5 µM.

For `O=C(O)Cc1cnc(C(=O)c2ccc(NC(=O)c3cc4cc(F)ccc4[nH]3)cc2)c2ccccc12` [Example 122], the IC50 was below 0.05 µM.

On to `Cn1c(C(=O)Nc2ccc(C(=O)c3ncc(CC(=O)O)c4ccccc34)cc2)cc2ccccc21` [Example 123], for which the IC50 is below 0.05 µM.

In the case of `O=C(O)Cc1cnc(C(=O)c2ccc(NC(=O)c3ccc4cnccc4n3)cc2)c2ccccc12` [Example 124], the IC50 is 0.5 to 1 µM.

Take `Cc1c(F)c(F)c(C(=O)Nc2ccc(C(=O)c3ncc(CC(=O)O)c4ccccc34)cc2)c(F)c1F` [Example 125]: the IC50 lay in the range of 0.5 to 1 µM.

As to `O=C(O)Cc1cnc(C(=O)c2ccc(NC(=O)Cc3c[nH]c4ccccc34)cc2)c2ccccc12` [Example 126], the IC50 was below 0.05 µM.

In the case of `O=C(O)Cc1cnc(C(=O)c2ccc(C(=O)Nc3ccc(Cl)cc3)cc2)c2ccccc12` [Example 140], the IC50 was below 0.05 µM.

On to `O=C(O)Cc1cnc(C(=O)c2ccc(Oc3ccccc3)cc2)c2ccccc12` [Example 145], for which the IC50 was at least 1 µM.

`O=C(O)Cc1cnc(C(=O)c2ccc(COCCc3ccc(Cl)cc3)cc2)c2ccccc12` [Example 146, {1-[(4-{[2-(4-chlorophenyl)ethoxy]methyl}phenyl)carbonyl]isoquinolin-4-yl}acetic acid]: the IC50 lay in the range of 0.05 to 0.5 µM.

As to `O=C(O)Cc1cnc(C(=O)c2ccc(CNCc3ccc(Cl)cc3)cc2)c2ccccc12` [Example 147, {1-[(4-{[(4-chlorobenzyl)amino]methyl}phenyl)carbonyl]isoquinolin-4-yl}acetic acid hydrochloride], the IC50 is at least 1 µM.

For the molecule `O=C(O)Cc1cnc(Cc2ccc(OCCc3ccc(Cl)cc3)cc2)c2ccccc12` [Example 149, (1-{4-[2-(4-chlorophenyl)ethoxy]benzyl}isoquinolin-4-yl)acetic acid], the IC50 is 0.5 to 1 µM.

Turning to `O=C(O)Cc1cnc(Cc2ccc(OCCCc3ccc(Cl)cc3)cc2)c2ccccc12` [Example 150], the IC50 was 0.05 to 0.5 µM.

With `O=C(O)Cc1cnc(Cc2ccc(OCCOc3ccc(Cl)cc3)cc2)c2ccccc12` [Example 151], the IC50 fell in the range of 0.05 to 0.5 µM.

For the molecule `O=C(O)Cc1cnc(Cc2ccc(S(=O)(=O)NCCc3ccc(Cl)cc3)cc2)c2ccccc12` [Example 152, [1-(4-{[2-(4-chlorophenyl)ethyl]sulfamoyl}benzyl)isoquinolin-4-yl]acetic acid], the IC50 is 0.05 to 0.5 µM.

Consider `O=C(O)Cc1cnc(Cc2ccc(C(=O)NCc3ccc(Cl)cc3)cc2)c2ccccc12` [Example 154], for which the IC50 was in the range of 0.05 to 0.5 µM.

As to `O=C(O)Cc1cnc(Cc2ccc(C(=O)NCCc3cccc(Cl)c3)cc2)c2ccccc12` [Example 155], the IC50 was below 0.05 µM.

Turning to `COc1ccc(CCNC(=O)c2ccc(Cc3ncc(CC(=O)O)c4ccccc34)cc2)cc1` [Example 156], the IC50 lay in the range of 0.05 to 0.5 µM.

Take `COc1ccc(CCNC(=O)c2ccc(Cc3ncc(CC(=O)O)c4ccccc34)cc2)cc1Cl` [Example 157]: the IC50 was below 0.05 µM.

As for `O=C(O)Cc1cnc(Cc2ccc(C(=O)Nc3ccc(Cl)c(Cl)c3)cc2)c2ccccc12` [Example 158], the IC50 was below 0.05 µM.

For `O=C(O)Cc1cnc(Cc2ccc(C(=O)Nc3ccc(Cl)cc3)cc2)c2ccccc12` [Example 159], the IC50 was below 0.05 µM.

Take `O=C(O)Cc1cnc(Cc2ccc(C(=O)NCCc3ccc(Cl)c(Cl)c3)cc2)c2ccccc12` [Example 160]: the IC50 was below 0.05 µM.
